Holding throughout (test): growth of human tumour cells (NCI), 48 h
Assay [1] relates to EKVX.
Assay [2] has as its system HCC 2998.
The subject of assay [3] is HOP-92.
The subject of assay [4] is SF-539.
For assay [5], the system named is ACHN.
Assay [6] relates to OVCAR-8.
The test system of assay [7] is Malme-3M.
Assay [8] concerns A498.
The test system of assay [9] is OVCAR-4.
Assay [10] has as its system SK-MEL-5.
Assay [11] relates to K562.
Assay [12] concerns SN12C.
The test system of assay [13] is SNB-19.
Assay [14] deals with KM12.
The test system of assay [15] is NCI-H226.
Assay [16] relates to HL-60.
The test system of assay [17] is SK-MEL-2.
The test system of assay [18] is RPMI-8226.
For assay [19], the system named is UACC-257.
Assay [20] relates to TK-10.

The structures appear in SMILES notation.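 These data come from cells grown in 96-well plates and exposed to compound for 48 hours at five concentrations. Here, GI50 denotes the concentration required for 50% inhibition of growth.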 The source made the active and inactive calls. Cut-off read from the data, not from the text of the source: active = GI50 up to about 1.1 µM and inactive = higher.

On to `CSc1nc2c(c(=O)[nH]1)N=C(c1ccccc1)CC(c1ccccc1)N2` (stereo not drawn), for which the GI50 in assay [1] was 32.1 µM (inactive); in [2], 29.3 µM (inactive); in [3], 41.5 µM (inactive); in [4] it was 23.2 µM (inactive); in assay [5], 25.6 µM (inactive); in assay [6] it was 28 µM (inactive). Also, the GI50 was 23.4 µM (inactive) in assay [7]; 83.4 µM (inactive) in assay [8]; 30.3 µM (inactive) in assay [9]; 28.1 µM (inactive) in assay [10]; 23.4 µM (inactive) in assay [11]; 21.2 µM (inactive) in [12]. Further, the GI50 in assay [13] was 39.1 µM (inactive); in assay [14], 14.1 µM (inactive); in assay [15], 39.7 µM (inactive); in assay [16], 22.9 µM (inactive); in assay [17], 27.8 µM (inactive); in assay [18], 28.5 µM (inactive). Also, in assay [19], the GI50 is 56.5 µM (inactive).
As for `O=C(Nc1ccc(Cl)cc1)c1cc(S(=O)(=O)Nc2n[nH]c(=O)[nH]2)c(SSc2cc(Cl)c(C(=O)Nc3ccc(Cl)cc3)cc2S(=O)(=O)Nc2n[nH]c(=O)[nH]2)cc1Cl`, the GI50 in assay [1], in assay [2], in assay [3], in [5], in assay [6] and in [7] was > 100 µM (inactive) in each case. The GI50 in assay [8], in assay [9], in assay [10], in assay [11], in assay [12] and in assay [13] was > 100 µM (inactive) in each case. Moreover, the GI50 in [14], in assay [15], in assay [20], in assay [16], in [17] and in assay [18] was > 100 µM (inactive) each time. In assay [19], the GI50 was > 100 µM (inactive).
For `CC(=O)O[C@H]1[C@@H](OC2CCCC2(c2ccccc2)c2ccccc2)O[N+]([O-])=C[C@@H]1c1ccccc1` (stereo partly drawn), the GI50 in assay [1] is 13.4 µM (inactive); in [2] it was 10.4 µM (inactive); in [3], 5.92 µM (inactive); in [5] it was 5.07 µM (inactive); in assay [6], 2.47 µM (inactive); in assay [8] it was 8.22 µM (inactive). Besides, the GI50 in assay [9] was 6.46 µM (inactive); in assay [10], 8.02 µM (inactive); in [11], 4.41 µM (inactive); in assay [12], 4.66 µM (inactive); in assay [13], 15.6 µM (inactive); in [14] it was 11.3 µM (inactive). For the same compound, the GI50 in assay [15] was 20.7 µM (inactive); in [20], 9.71 µM (inactive); in assay [16] it was 2.01 µM (inactive); in assay [17], 8.57 µM (inactive); in assay [18] it was 2.01 µM (inactive); in [19], 9.25 µM (inactive).
With `O=CNCCCN1CCN(CCCNC=O)CC1`, the GI50 in [1], in assay [2], in [3], in assay [4], in assay [5] and in assay [6] was > 100 µM (inactive) throughout. For the same compound, the GI50 in [8], in assay [9], in assay [10], in assay [11], in [12] and in [13] was > 100 µM (inactive) in each case. The GI50 in assay [14], in assay [15], in assay [20], in assay [16], in [17] and in assay [18] was > 100 µM (inactive) throughout. Moreover, in [19], the GI50 is > 100 µM (inactive).
For `O=C(OCc1ccccc1)c1ccccc1-c1c2ccc(=O)cc-2oc2cc(OCc3ccccc3)ccc12`, the GI50 in [1] was 6.61 µM (inactive); in assay [2], 19.6 µM (inactive); in [3], 3.56 µM (inactive); in assay [4], 13.6 µM (inactive); in assay [5], 6.93 µM (inactive); in [6] it was 12.1 µM (inactive). Besides, the GI50 in assay [7] was 12.1 µM (inactive); in assay [8], 25.5 µM (inactive); in [9], 13.5 µM (inactive); in assay [10] it was 5.86 µM (inactive); in [11], 3.18 µM (inactive); in assay [12], 16.9 µM (inactive). The GI50 in assay [13] is 35.1 µM (inactive); in assay [14], 12.7 µM (inactive); in assay [15], 11.6 µM (inactive); in assay [16], 5.48 µM (inactive); in assay [17] it was 18.7 µM (inactive); in [18], 5.48 µM (inactive). Besides, the GI50 in assay [19] is 8.95 µM (inactive).
As to `NC(=O)c1cn(Cc2ccccc2)c(=O)n1Cc1ccccc1`, the GI50 in assay [1], in assay [2], in [3], in assay [4], in assay [5] and in [6] was > 100 µM (inactive) throughout. Also, the GI50 in assay [8], in assay [9], in assay [10], in [11], in assay [12] and in assay [13] was > 100 µM (inactive) each time. Also, the GI50 in [14], in assay [15], in [20], in assay [16], in [17] and in [18] was > 100 µM (inactive) each time. Further, the GI50 in assay [19] was > 100 µM (inactive).
Take `CC1=NC(=N)N=C(C)C1/N=N/c1ccc2[nH]c(C)nc2c1` (stereo not drawn): the GI50 in assay [1], in [2], in assay [3], in assay [4], in assay [5] and in assay [6] was > 100 µM (inactive) in each case. In addition, the GI50 in assay [7], in assay [8], in [9], in assay [11], in [12] and in assay [13] was > 100 µM (inactive) throughout. Moreover, the GI50 in assay [14], in assay [15], in assay [20], in [16], in assay [17] and in assay [18] was > 100 µM (inactive) throughout. Besides, in assay [19], the GI50 is > 100 µM (inactive).
`CC(C)C1=CCC2C(=C1)CCC1C(C)(C(=O)O)CCCC21C` (stereo not drawn): the GI50 in assay [1] is > 100 µM (inactive); in assay [2], > 100 µM (inactive); in assay [3], > 100 µM (inactive); in assay [4], > 100 µM (inactive); in assay [5], 94.8 µM (inactive); in assay [6], > 100 µM (inactive). The GI50 in assay [7] was > 100 µM (inactive); in [8], > 100 µM (inactive); in [9], 56.8 µM (inactive); in [10], > 100 µM (inactive); in assay [12] it was > 100 µM (inactive); in assay [14], 92.3 µM (inactive). In addition, the GI50 in assay [15] was > 100 µM (inactive); in assay [20], > 100 µM (inactive); in assay [16], 14.2 µM (inactive); in assay [17], > 100 µM (inactive); in [18], 19.9 µM (inactive); in assay [19], > 100 µM (inactive).
On to `CCCCCCCCCCCCCCCCOCC(Cl)CP(=O)(O)OP(=O)(O)OCC1OC(n2cnc3c(N)ncnc32)C(O)C1O` (stereo not drawn), for which the GI50 in assay [1], in assay [2], in [3], in assay [4], in assay [5] and in assay [6] was > 100 µM (inactive) in each case. Further, the GI50 in [7], in assay [8], in assay [9], in assay [10], in assay [11] and in assay [12] was > 100 µM (inactive) each time. Moreover, the GI50 in [13] is 60.3 µM (inactive); in [14] it was > 100 µM (inactive); in [15] it was > 100 µM (inactive); in [20], > 100 µM (inactive); in assay [16] it was > 100 µM (inactive); in [17], > 100 µM (inactive). Besides, the GI50 in [19] is > 100 µM (inactive).
Regarding `COc1ccc(CC(C#N)c2cc(OC)c(OC)c(OC)c2)cc1` (stereo not drawn), the GI50 in [1] is 1.56 µM (inactive); in assay [2] it was < 0.0416 µM (active); in assay [3] it was 0.366 µM (active); in [4], 0.0436 µM (active); in assay [5], 0.796 µM (active); in [6], 0.135 µM (active). For the same compound, the GI50 in assay [7] was 0.0361 µM (active); in assay [8], 0.179 µM (active); in assay [9], 7.29 µM (inactive); in assay [10] it was 0.0266 µM (active); in assay [11], 0.0248 µM (active); in assay [12], 0.135 µM (active). Further, the GI50 in assay [13] is 0.0986 µM (active); in assay [14], 0.0194 µM (active); in assay [15] it was 0.773 µM (active); in assay [16] it was 0.0258 µM (active); in [17] it was 0.0775 µM (active); in assay [18] it was 0.0741 µM (active). Besides, the GI50 in assay [19] is 0.0356 µM (active).

Source of the values: ChEMBL document CHEMBL1201862, “PubChem BioAssay data set” (2004).
